# Literature values, collected in patent US12343427B1, “Stable intravenous diltiazem hydrochloride formulation and use thereof” (Nivagen Pharmaceuticals, Inc., priority 2024, dated 2025).
# Target: CYP2D6 (Homo sapiens, UniProt P10635)
# Conditions: Molden E, et al. Drug Metab Dispos. 30: 1-3 (2002)
# CYP2D6, sequence (P10635 whole entry): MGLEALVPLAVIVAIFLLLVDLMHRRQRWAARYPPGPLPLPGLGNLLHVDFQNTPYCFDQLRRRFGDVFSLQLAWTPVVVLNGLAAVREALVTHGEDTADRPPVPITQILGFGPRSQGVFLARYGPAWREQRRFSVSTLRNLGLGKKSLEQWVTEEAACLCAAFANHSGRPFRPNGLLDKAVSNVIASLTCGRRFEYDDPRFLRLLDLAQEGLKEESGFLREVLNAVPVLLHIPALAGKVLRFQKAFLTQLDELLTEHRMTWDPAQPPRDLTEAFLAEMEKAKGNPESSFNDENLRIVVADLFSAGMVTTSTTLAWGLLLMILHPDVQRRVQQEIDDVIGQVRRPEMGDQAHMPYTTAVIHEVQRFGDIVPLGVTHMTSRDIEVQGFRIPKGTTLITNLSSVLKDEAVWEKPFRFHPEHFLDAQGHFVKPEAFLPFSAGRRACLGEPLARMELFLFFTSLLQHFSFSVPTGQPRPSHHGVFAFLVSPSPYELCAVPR
smiles,measurement,value
COc1ccc([C@@H]2Sc3ccccc3N(CCN(C)C)C(=O)[C@@H]2O)cc1 [Desacetyl-diltiazem],affinity to CYP2D6 compared with CYP3A4,severalfold higher affinity to CYP2D6 compared with CYP3A4
